Source: patent publication US10596172B2 (Celgene CAR LLC, priority 2008, dated 2020)
Where two headings read alike, the source gives them in different places.

Columns and labels:
BTK [1] = biological target: BTK (Canis lupus familiaris, UniProt A0A8I3P3Z9); assay: Dog primary B cell covalent probe occupancy in vitro; type: cell-based; settings: canine PBMCs, one hour at 37° C.
Method: (§1) All samples were prepared with equal concentrations of Biorad lysis buffer (Hercules, Calif., USA), 0.5% bovine serum albumin in PBS with 0.05% Tween-20 to give a final concentration of 1 μM I-215. Samples were incubated in a mixing plate for 1 hr at room temperature while shaking to allow probe compound I-215 to bind to free BTK. After incubation with I-215, samples were added to a washed, streptavidin-coated ELISA plate (Pierce, Rockford, Ill., USA) and incubated for 1 hr at room temperature while shaking. The plate was then washed with PBS containing 0.05% Tween-20 using an automatic plate washer. Anti-BTK antibody was prepared at 1:1000 dilution in 0.5% BSA in PBS (0.05% Tween-20) and added to the ELISA plate. The plate was incubated for 1 hr at room temperature while shaking. The plate was washed as described above and the secondary HRP antibody was prepared at 1:5000 dilution in 0.5% BSA in PBS (0.05% Tween-20). The plate was incubated and washed as described above. TMB was added to the plate, and OD650 was monitored until reaching 1 OD unit. […] The plate was analyzed using Gen 5 software, and a 4 Parameter Logistic curve was employed to quantitate samples. […]
Canine whole blood (30 mL) was diluted to 50 mL total with 1×PBS and layered on top of Histopaque-1077 (Sigma Aldrich). […] The supernatant was analyzed as described in Example 283 using I-215. […]

Human naïve B cells = assay: Human primary B cell proliferation assay; type: cell-based; settings: 5 μg/ml α-IgM 72 hours, 3H-thymidine incorporation
Method: Human naïve B cells were purified from 100 mL whole blood using a MACS purification kit designed to isolate CD19+, IgD+ cells by negative selection. Purified naïve B cells were resuspended in RPMI complete and stimulated with 5 μg/ml α-IgM for 72 hours. ^3H-Thymidine was included in the culture media for the final 16 h, cells were harvested and ^3H incorporation measured. Inhibition of B cell proliferation correlates with inhibition of BTK substrate phosphorylation after α-IgM stimulation.

BTK [2] = biological target: T1, BTK (Homo sapiens (Human), UniProt Q06187); assay: BTK occupancy from in vitro samples by ELISA (Ramos cells); type: cell-based
Method: In order to determine the amount of free BTK in cell or tissue lysates, an ELISA protocol was employed that utilizes a biotinylated probe compound that binds only to free, unoccupied BTK. The conjugated biotin is captured on a streptavidin-coated ELISA plate and detected with a mouse anti-BTK antibody (Becton Dickinson, Franklin Lakes, N.J., USA) and a secondary goat anti-mouse HRP antibody (Zymed, South San Francisco, Calif., USA).
(§2) All samples were prepared with equal concentrations of Biorad lysis buffer (Hercules, Calif., USA), 0.5% bovine serum albumin in PBS with 0.05% Tween-20 to give a final concentration of 1 μM I-215. Samples were incubated in a mixing plate for 1 hr at room temperature while shaking to allow probe compound I-215 to bind to free BTK. After incubation with I-215, samples were added to a washed, streptavidin-coated ELISA plate (Pierce, Rockford, Ill., USA) and incubated for 1 hr at room temperature while shaking. The plate was then washed with PBS containing 0.05% Tween-20 using an automatic plate washer. Anti-BTK antibody was prepared at 1:1000 dilution in 0.5% BSA in PBS (0.05% Tween-20) and added to the ELISA plate. The plate was incubated for 1 hr at room temperature while shaking. The plate was washed as described above and the secondary HRP antibody was prepared at 1:5000 dilution in 0.5% BSA in PBS (0.05% Tween-20). The plate was incubated and washed as described above. TMB was added to the plate, and OD650 was monitored until reaching 1 OD unit. The reaction was then stopped with addition of H2SO4. The plate was analyzed using Gen 5 software, and a 4 Parameter Logistic curve was employed to quantitate samples. Recombinant BTK (Invitrogen, Carlsbad, Calif., USA) was used for the standard curve.
A concentration designated as “A” is greater than 1 nM; a concentration designated as “B” is greater than 10 nM; and a concentration designated as “C” is greater than 50 nM.

[3] = system: B cell lymphoma cell lines; assay: B cell lymphoma proliferation assay; type: cell-based
BTK [4] = biological target: T1, BTK; assay: Human primary B cell covalent probe occupancy in vitro; type: cell-based; settings: human primary B cells, 1 h at 37° C.
Method: as §1, with “The plate was incubated and washed as described above.” left out
Human primary B cells were isolated as described in Example 256, then resuspended in RPMI media (10% serum). The compound to be analyzed was added at a 1:1000 dilution to media. […] The supernatant was analyzed as described in Example 283 using I-215.

JAK3 = JAK3 (Homo sapiens (Human), UniProt P52333); assay: Omnia assay for potency assessment against the active form of JAK3; type: biochemical; settings: read-out: JAK3 Inhibition
BTK [5] = biological target: T1, BTK; assay: Mass spectrometry for BTK (covalent modification of intact protein); type: binding; settings: 1 hr, 10x fold excess of compound
Method: Intact BTK was incubated for 1 hr at a 10× fold excess of I-7 to protein. Aliquots (2 μl) of the samples were diluted with 10 μl of 0.1% TFA prior to micro C4 ZipTipping directly onto the MALDI target using Sinapinic acid as the desorption matrix (10 mg/ml in 0.1% TFA:Acetonitrile 20:80).

BTK [6] = biological target: BTK (Rattus norvegicus, UniProt Q5S255); assay: BTK occupancy from in vivo samples by ELISA; settings: po, rats dosed orally 30 mg/kg
Method: as §2
Rats were dosed orally with 30 mg/kg of compound and spleens were harvested either 2 or 24 hours after compound treatment. Rat spleens were disrupted between two microscope slides coated with frosted glass to recover single cell suspensions. Red blood cells were lysed by incubating with RBC lysis buffer (Boston BioProducts) for 2 minutes at room temperature, the cells were then resuspended in RPMI complete media and pelleted by centrifugation. Rat B cells were isolated by positive selection with B220+ antibody-magnetic bead conjugates, purified by MACS column and lysed in Bio-Rad lysis buffer at a concentration of 10 million cells/100 μl. Lysates were analyzed employing the biotinylated probe compound I-215 in an ELISA protocol as described in detail in Example 278.

[7] = Homo sapiens, DOHH-2, DOHH2 B cell lymphoma cell line, read-out: EC50 (μM) DOHH2
[8] = Homo sapiens, WSUDLCL2, WSU-DLCL2 B cell lymphoma cell line, read-out: EC50 (μM) WSU-DLCL2
[9] = spleen B cells harvested 2 hours after treatment, read-out: % BTK Occupancy 2 h
[10] = spleen B cells harvested 24 hours after treatment, read-out: % BTK Occupancy 24 h

T1 sequence (Q06187 whole entry): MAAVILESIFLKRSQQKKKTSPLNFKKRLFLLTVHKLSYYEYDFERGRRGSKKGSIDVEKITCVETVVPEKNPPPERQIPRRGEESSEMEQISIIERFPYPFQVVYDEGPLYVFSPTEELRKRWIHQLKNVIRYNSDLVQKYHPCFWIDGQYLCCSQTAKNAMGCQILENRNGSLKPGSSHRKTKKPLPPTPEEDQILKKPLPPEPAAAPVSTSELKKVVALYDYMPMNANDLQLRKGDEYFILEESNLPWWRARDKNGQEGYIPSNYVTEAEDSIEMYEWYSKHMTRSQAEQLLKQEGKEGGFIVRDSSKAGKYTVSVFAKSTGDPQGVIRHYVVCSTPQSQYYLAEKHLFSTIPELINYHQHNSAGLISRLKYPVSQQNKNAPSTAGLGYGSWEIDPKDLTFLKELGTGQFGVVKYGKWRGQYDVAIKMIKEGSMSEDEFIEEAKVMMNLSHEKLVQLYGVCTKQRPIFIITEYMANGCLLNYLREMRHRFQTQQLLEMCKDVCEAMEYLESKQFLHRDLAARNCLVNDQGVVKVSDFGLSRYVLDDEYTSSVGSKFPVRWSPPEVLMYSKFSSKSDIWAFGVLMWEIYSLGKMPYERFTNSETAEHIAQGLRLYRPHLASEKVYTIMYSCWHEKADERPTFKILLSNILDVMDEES
Chain of BTK (Rattus norvegicus, UniProt Q5S255) (Q5S255 1-660): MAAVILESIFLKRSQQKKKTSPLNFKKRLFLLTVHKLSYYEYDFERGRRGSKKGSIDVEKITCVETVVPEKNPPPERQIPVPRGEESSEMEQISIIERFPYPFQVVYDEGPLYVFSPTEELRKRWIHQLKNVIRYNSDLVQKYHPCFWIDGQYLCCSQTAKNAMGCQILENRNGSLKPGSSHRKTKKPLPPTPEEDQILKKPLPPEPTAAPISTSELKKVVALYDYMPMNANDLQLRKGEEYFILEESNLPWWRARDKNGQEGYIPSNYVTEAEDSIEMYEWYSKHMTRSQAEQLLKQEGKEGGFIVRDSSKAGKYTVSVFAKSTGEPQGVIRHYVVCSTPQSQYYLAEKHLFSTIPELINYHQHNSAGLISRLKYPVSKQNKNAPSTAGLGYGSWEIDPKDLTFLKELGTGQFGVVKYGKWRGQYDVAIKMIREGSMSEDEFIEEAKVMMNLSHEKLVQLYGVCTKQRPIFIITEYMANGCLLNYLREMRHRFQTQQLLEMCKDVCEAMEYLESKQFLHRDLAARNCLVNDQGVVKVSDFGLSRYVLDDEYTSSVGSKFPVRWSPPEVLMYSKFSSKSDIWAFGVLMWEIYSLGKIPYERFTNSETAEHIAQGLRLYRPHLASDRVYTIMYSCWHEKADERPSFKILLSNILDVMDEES
Chain of JAK3 (P52333 whole entry): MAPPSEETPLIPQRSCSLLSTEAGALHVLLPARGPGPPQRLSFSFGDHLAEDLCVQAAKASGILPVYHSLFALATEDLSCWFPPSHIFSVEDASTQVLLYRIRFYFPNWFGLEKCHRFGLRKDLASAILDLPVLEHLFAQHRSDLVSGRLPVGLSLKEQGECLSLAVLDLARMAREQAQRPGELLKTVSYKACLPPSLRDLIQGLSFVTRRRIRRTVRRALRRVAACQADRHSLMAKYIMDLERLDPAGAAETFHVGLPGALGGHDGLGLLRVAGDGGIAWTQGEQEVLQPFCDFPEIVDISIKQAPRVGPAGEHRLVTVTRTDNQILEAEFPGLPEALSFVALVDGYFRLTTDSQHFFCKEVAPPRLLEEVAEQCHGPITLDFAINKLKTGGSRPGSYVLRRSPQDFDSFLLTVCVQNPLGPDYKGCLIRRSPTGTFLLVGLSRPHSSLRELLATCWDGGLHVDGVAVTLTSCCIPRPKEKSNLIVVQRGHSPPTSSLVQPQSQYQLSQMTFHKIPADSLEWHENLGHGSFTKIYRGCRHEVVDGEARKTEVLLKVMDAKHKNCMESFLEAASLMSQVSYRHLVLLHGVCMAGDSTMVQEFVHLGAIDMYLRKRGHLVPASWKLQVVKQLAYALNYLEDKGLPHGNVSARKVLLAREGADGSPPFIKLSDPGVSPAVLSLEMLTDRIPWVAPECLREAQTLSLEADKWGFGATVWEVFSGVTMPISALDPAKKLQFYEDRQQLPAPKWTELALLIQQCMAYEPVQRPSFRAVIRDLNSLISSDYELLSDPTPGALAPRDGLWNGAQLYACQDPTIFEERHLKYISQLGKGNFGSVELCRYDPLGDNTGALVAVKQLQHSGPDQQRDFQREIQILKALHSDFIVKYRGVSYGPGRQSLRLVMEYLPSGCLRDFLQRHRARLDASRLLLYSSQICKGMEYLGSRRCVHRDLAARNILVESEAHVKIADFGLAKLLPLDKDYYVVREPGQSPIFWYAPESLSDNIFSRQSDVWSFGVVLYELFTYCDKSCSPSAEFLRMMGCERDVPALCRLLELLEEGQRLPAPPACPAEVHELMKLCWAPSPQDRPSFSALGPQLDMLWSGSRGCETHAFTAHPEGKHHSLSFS
Chain of BTK (Canis lupus familiaris, UniProt A0A8I3P3Z9) (A0A8I3P3Z9 1-664): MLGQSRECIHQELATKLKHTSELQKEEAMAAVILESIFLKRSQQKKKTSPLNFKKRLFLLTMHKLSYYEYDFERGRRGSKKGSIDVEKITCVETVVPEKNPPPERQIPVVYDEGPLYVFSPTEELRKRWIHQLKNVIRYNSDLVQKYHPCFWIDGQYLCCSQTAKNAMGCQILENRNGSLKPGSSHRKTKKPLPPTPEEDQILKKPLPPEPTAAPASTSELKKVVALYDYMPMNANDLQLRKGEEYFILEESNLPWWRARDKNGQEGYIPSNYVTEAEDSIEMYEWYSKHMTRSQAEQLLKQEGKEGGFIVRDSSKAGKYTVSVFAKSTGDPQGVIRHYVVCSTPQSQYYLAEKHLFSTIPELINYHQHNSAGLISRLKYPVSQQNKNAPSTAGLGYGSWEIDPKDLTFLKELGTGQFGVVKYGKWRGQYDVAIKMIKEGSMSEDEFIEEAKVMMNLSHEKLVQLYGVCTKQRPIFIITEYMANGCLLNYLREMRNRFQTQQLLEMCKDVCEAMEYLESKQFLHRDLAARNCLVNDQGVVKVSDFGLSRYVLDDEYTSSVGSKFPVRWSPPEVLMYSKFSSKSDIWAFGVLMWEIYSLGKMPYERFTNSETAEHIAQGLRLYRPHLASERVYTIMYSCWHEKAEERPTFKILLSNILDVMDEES

| concentration at which at least 50% of BTK is occupied (BTK [1]) | >50% occupancy (concentration at which >50% of BTK is occupied) (BTK [2]) | >90% occupancy (concentration at which >90% of BTK is occupied) (BTK [2]) | EC50 [3, 7] [µM] | EC50 [3, 8] [µM] | concentration at which at least 50% of BTK is occupied (BTK [4]) | IC50 (JAK3) [µM] | covalent modification of BTK by mass spectrometry (BTK [5]) | receptor occupancy at 30 mg/kg (BTK [6]; [9]) [%] | receptor occupancy at 30 mg/kg (BTK [6]; [10]) [%] | EC50 ([3]; DHL4 B cell lymphoma cell line, read-out: EC50 (μM) DHL4) [µM] | SMILES | EC50 (Human naïve B cells) [µM] |
| --- | --- | --- | --- | --- | --- | --- | --- | --- | --- | --- | --- | --- |
| greater than 10 nM | A (greater than 1 nM) | B (greater than 10 nM) | 0.1 to 1 | 1 to 10 | greater than 10 nM | < 0.01 | completely modify | 87 | 60 |  | C=CC(=O)Nc1cccc(Nc2nc(Nc3ccc(OCCOC)c(F)c3)ncc2F)c1 [Compound I-96, N-(3-(2-(3-fluoro-4-(2-methoxyethoxy)phenylamino)-5-fluoropyrimidin-4-ylamino)phenyl)acrylamide] | 0.001 to 0.01 |
|  | A (greater than 1 nM) | C (greater than 50 nM) | 1 to 10 | 1 to 10 | greater than 10 nM | < 0.01 | completely modify | 99 | 79 | 1 to 10 | C=CC(=O)Nc1cccc(Nc2nc(Nc3ccc(OCCOC)cc3)ncc2F)c1 [Compound I-182, N-(3-(5-fluoro-2-(4-(2-methoxyethoxy)phenylamino)pyrimidin-4-ylamino)phenyl)acrylamide] | 0.001 to 0.01 |
